The record followed here is paper PMC10945555, “Improving Activity of New Arylurea Agents against Multidrug-Resistant and Biofilm-Producing Staphylococcus epidermidis” (ACS Medicinal Chemistry Letters, 2024).

In experiment [1] the test system is Staphylococcus epidermidis no. 44. The experiment in a line: Real-time bacterial growth analysis. Format: cell-based. The following applies: real-time growth analysis and MBC/MIC ratio. As to the method: (reduction of navy blue resazurin to pink resorufin in the presence of metabolically active cells) compared to the negative (sterile medium without bacteria and compounds) and positive control (medium with bacteria).9 The minimal biofilm eradication concentration value was analyzed using a high throughput screening the MBEC Assay® Kit (Innovotech, Canada), formerly the Calgary Biofilm Device, according to the manufacturer's insert.10
2.4.1 Determination of biofilm viability by confocal laser scanning microscope (CLSM) […]
by the selected strains was observed using the confocal laser scanning microscopy technique (CLSM, model Inverted Microscope for Industry Leica DMi8, Wetzlar, Germany). Biofilms were grown on Millicell® EZ SLIDE slides (Merck, Germany)11 and incubated with FilmTracer™ SYPRO™ Ruby Biofilm Matrix Stain (ThermoFisher Scientific, USA).12 2.5 Evaluation of bacteriostatic/bactericidal properties […]
determining MBC (Minimal Bactericidal Concentration) values. The study was conducted in accordance with the guidelines of the Clinical and Laboratory Standards Institute (CLSI).13 The MBC value was assumed to be the concentration of the compound inhibiting the growth of strains in 99.9%. Then, the value of the MBC/MIC ratio was calculated to assess its bactericidal or bacteriostatic activity. […]
compound 25 and linezolid expressed as changes in OD600 over time. […]

For experiment [2], the system named is Staphylococcus epidermidis clinical strain no. 23. The experiment in a line: Cell membrane potential, DiOC2 flow cytometry. In kind it is cell-based. The following applies: 4 × MIC, within 15 min; MSSE, S. epidermidis clinical strain no. 23, S. aureus Newman. From the text: 23, and S. aureus Newman (reference strain without known antibiotic resistance determinants). Bacterial strains were stained with 3,3′-diethyloxacarbocyanine iodide (DiOC2) and then treated with the tested compound 25, with carbonyl cyanide 3-chlorophenylhydrazone (CCCP) used as a positive control. Daptomycin was used as a reference compound that causes depolarization of bacterial cell membranes.[22]
(reduction of navy blue resazurin to pink resorufin in the presence of metabolically active cells) compared to the negative (sterile medium without bacteria and compounds) and positive control (medium with bacteria).9 The minimal biofilm eradication concentration value was analyzed using a high throughput screening the MBEC Assay® Kit (Innovotech, Canada), formerly the Calgary Biofilm Device, according to the manufacturer's insert.10 […]
determining MBC (Minimal Bactericidal Concentration) values. […] Then, the value of the MBC/MIC ratio was calculated to assess its bactericidal or bacteriostatic activity. […]
using the BacLight™ Bacterial Membrane Potential Kit (Molecular Probes, Invitrogen, Carlsbad, CA, USA).15 Analysis of the cells was tested in an LSR II flow cytometer (BD Biosciences Immunocytometry Systems, San Jose, CA, USA) equipped with blue, red and violet lasers, using 488 nm excitation for green (530/30 BP filter, 505 LP) and red (610/20 BP, 600 LP) fluorescence. […]
A general note: Flow cytometry measures light scatter and fluorescence of single cells or particles in a stream.

With `CC(=O)NC[C@H]1CN(c2ccc(N3CCOCC3)c(F)c2)C(=O)O1` [linezolid, reference compound], the bacteriostatic/bactericidal properties entry in experiment [1] is “bacteriostatic properties”.

On to `O=C(Nc1cccc(Cl)c1)NC1CCN(CCC(Oc2ccc(C(F)(F)F)cc2)c2cccs2)CC1` (stereo not drawn) [Compound 25], for which, in experiment [2], the membrane depolarization result is reported as “depolarization in nearly all bacterial cells”. For the same compound, the bacteriostatic/bactericidal properties result in experiment [1] is recorded as “bacteriostatic properties”.
